Reference: ChEMBL document CHEMBL4196088, “Induction of cell killing and autophagy by amphiphilic pyrrolidine derivatives on human pancreatic cancer cells” (Eur J Med Chem, 2018)

Tests used:
[1] = test system: PANC-1; assay: Induction of apoptosis in human PANC1 cells assessed as accumulation at sub-G0/G1 phase at 10 uM after 72 hrs by propidium iodide staining based flow cytometry (reference value: 1.6 to 3.2%); type: functional
[2] = test system: PANC-1; assay: Induction of apoptosis in human PANC1 cells assessed as accumulation at sub-G0/G1 phase at 10 uM after 48 hrs by propidium iodide staining based flow cytometry (reference value: 0.2 to 2.9%); type: functional
[3] = test system: PANC-1; assay: Induction of apoptosis in human PANC1 cells assessed as accumulation at sub-G0/G1 phase at 20 uM after 72 hrs by propidium iodide staining based flow cytometry (reference value: 1.6 to 3.2%); type: functional
[4] = Induction of apoptosis in HPNE cells assessed as accumulation at sub-G0/G1 phase at 20 uM after 72 hrs by propidium iodide staining based flow cytometry (reference value: 6.6%); type: cell-based; details: human
[5] = test system: Fibroblast; assay: Induction of apoptosis in human primary fibroblasts assessed as accumulation at sub-G0/G1 phase at 10 uM after 72 hrs by propidium iodide staining based flow cytometry (reference value: 6.7%); type: cell-based
[6] = test system: Fibroblast; assay: Induction of apoptosis in human primary fibroblasts at 20 uM after 72 hrs by propidium iodide staining based flow cytometry (reference value: 6.7%); type: cell-based
[7] = test system: PK9; assay: Induction of apoptosis in human PK9 cells assessed as accumulation at sub-G0/G1 phase at 20 uM after 24 hrs by propidium iodide staining based flow cytometry (reference value: 2.2%); type: functional
[8] = Induction of apoptosis in HPNE cells assessed as accumulation at sub-G0/G1 phase at 10 uM after 72 hrs by propidium iodide staining based flow cytometry (reference value: 6.6%); type: cell-based; details: human
[9] = Induction of apoptosis in HPNE cells assessed as accumulation at sub-G0/G1 phase at 20 uM after 48 hrs by propidium iodide staining based flow cytometry (reference value: 0.7%); type: cell-based; details: human
[10] = test system: Fibroblast; assay: Induction of apoptosis in human primary fibroblasts assessed as accumulation at sub-G0/G1 phase at 10 uM after 24 hrs by propidium iodide staining based flow cytometry (reference value: 4.8%); type: cell-based
[11] = test system: Fibroblast; assay: Induction of apoptosis in human primary fibroblasts at 20 uM after 48 hrs by propidium iodide staining based flow cytometry (reference value: 6.1%); type: cell-based
[12] = test system: PK9; assay: Induction of apoptosis in human PK9 cells assessed as accumulation at sub-G0/G1 phase at 10 uM after 72 hrs by propidium iodide staining based flow cytometry (reference value: 4%); type: functional
[13] = test system: PANC-1; assay: Induction of apoptosis in human PANC1 cells assessed as accumulation at sub-G0/G1 phase at 10 uM after 24 hrs by propidium iodide staining based flow cytometry (reference value: 0.6 to 0.7%); type: functional
[14] = test system: Fibroblast; assay: Induction of apoptosis in human primary fibroblasts at 20 uM after 24 hrs by propidium iodide staining based flow cytometry (reference value: 4.8%); type: cell-based
[15] = test system: Fibroblast; assay: Induction of apoptosis in human primary fibroblasts assessed as accumulation at sub-G0/G1 phase at 10 uM after 48 hrs by propidium iodide staining based flow cytometry (reference value: 6.1%); type: cell-based
[16] = test system: HeLa; assay: Growth inhibition of human HeLa cells after 72 hrs; type: functional, cell-based
[17] = test system: PK9; assay: Induction of apoptosis in human PK9 cells assessed as accumulation at sub-G0/G1 phase at 20 uM after 48 hrs by propidium iodide staining based flow cytometry (reference value: 3.8%); type: functional
[18] = test system: PK9; assay: Induction of apoptosis in human PK9 cells assessed as accumulation at sub-G0/G1 phase at 10 uM after 24 hrs by propidium iodide staining based flow cytometry (reference value: 2.2%); type: functional
[19] = Induction of apoptosis in HPNE cells assessed as accumulation at sub-G0/G1 phase at 10 uM after 48 hrs by propidium iodide staining based flow cytometry (reference value: 0.7%); type: cell-based; details: human
[20] = Induction of apoptosis in HPNE cells assessed as accumulation at sub-G0/G1 phase at 20 uM after 24 hrs by propidium iodide staining based flow cytometry (reference value: 0.6%); type: cell-based; details: human
[21] = test system: PK9; assay: Induction of apoptosis in human PK9 cells assessed as accumulation at sub-G0/G1 phase at 20 uM after 72 hrs by propidium iodide staining based flow cytometry (reference value: 4%); type: functional
[22] = test system: PANC-1; assay: Induction of apoptosis in human PANC1 cells assessed as accumulation at sub-G0/G1 phase at 20 uM after 24 hrs by propidium iodide staining based flow cytometry (reference value: 0.6 to 0.7%); type: functional
[23] = test system: PANC-1; assay: Induction of apoptosis in human PANC1 cells assessed as accumulation at sub-G0/G1 phase at 20 uM after 48 hrs by propidium iodide staining based flow cytometry (reference value: 0.2 to 2.9%); type: functional
[24] = Induction of apoptosis in HPNE cells assessed as accumulation at sub-G0/G1 phase at 10 uM after 24 hrs by propidium iodide staining based flow cytometry (reference value: 0.6%); type: cell-based; details: human
[25] = test system: PK9; assay: Induction of apoptosis in human PK9 cells assessed as accumulation at sub-G0/G1 phase at 10 uM after 48 hrs by propidium iodide staining based flow cytometry (reference value: 3.8%); type: functional

| Compound | Activity [1] [%] | Activity [2] [%] | Activity [3] [%] | Activity [4] [%] | Activity [5] [%] | Activity [6] [%] | Activity [7] [%] | Activity [8] [%] | Activity [9] [%] | Activity [10] [%] | Activity [11] [%] | Activity [12] [%] | Activity [13] [%] | Activity [14] [%] | Activity [15] [%] | IC50 [16] [µM] | Activity [17] [%] | Activity [18] [%] | Activity [19] [%] | Activity [20] [%] | other results |
| --- | --- | --- | --- | --- | --- | --- | --- | --- | --- | --- | --- | --- | --- | --- | --- | --- | --- | --- | --- | --- | --- |
| Cl.O[C@H]1CN[C@H](COCCCCCC/C=C/c2ccc(-c3ccccc3)cc2)C1 | 47.9 | 29.3 | 54.2 | 92.6 | 54.5 | 73.7 | 26 | 93.6 | 92.1 | 14.6 | 75.4 | 13.5 | 9.6 | 58.9 | 19.8 | 4.2 | 66.6 | 6.9 | 78.5 | 69.6 | Activity [21]: 71.5%; Activity [22]: 16.1%; Activity [23]: 36.9%; Activity [24]: 44.4%; Activity [25]: 10% |
| Cl.O[C@H]1CN[C@H](COCCCCCCCCC/C=C/c2ccc(Oc3ccccc3)cc2)C1 | 35.1 | 25.3 | 56.1 | 91.2 | 6.5 | 82.1 | 20.6 | 88 | 86.8 | 9.8 | 87.9 | 5.4 | 11.5 | 75.1 | 6.6 | 3.6 | 23.1 | 4.3 | 86.1 | 62.4 | Activity [21]: 27.8%; Activity [22]: 8.9%; Activity [23]: 49.5%; Activity [24]: 67.1%; Activity [25]: 10.8% |
